# Read-outs that look alike come from different tables or passages of the source.
# Experiments:
# AML cell lines = experiment: AML cell line sensitivity, summary over the panel; type: cell-based; conditions: all of these lines
# Experimental: (§1) SET-2, RS4;11, and SKM-1 cells were purchased from DSMZ. HL-60, MV4;11, OCI-AML2, NB4, MOLM-13, NOMO-1, DAOY, HEL, IMR-5, K562, Kasumi-1, ONS-76, RDES-1, and TC-71 cells were a gift from Alex Kentsis and verified using STR genotyping (Genetica). […] MCF-7, Jurkat, THP-1, U937, HL-60, MV4;11, OCI-AML2, NB4, MOLM-13, NOMO-1, HEL, K562, SET-2, RS4;11, SKM-1 and Kasumi-1 were grown in RPMI-1640 medium with 10% FBS. All cells were grown at 37° C. in a 5% CO2 incubator. Cell lines were tested for mycoplasma using the MycoAlert Mycoplasma Detection Kit (Lonza).
# (§2) Cells were plated (2000 cells/well) in white, 384-well clear bottom plates using an EL406 Microplate Washer/Dispenser (BioTek) in 25 μL final volume of media. Compounds were added using a pintool (CyBio) and cells were incubated for 48 h at 37° C. Assay plates were then removed from the incubator and allowed to equilibrate to room temperature on the bench top before addition of 10 μL of CellTiter-Glo reagent (Promega) according to the manufacturer's instructions. Assay plates were shaken on an orbital shaker for 2 minutes and incubated at room temperature on the bench top for 10 minutes. Luminescence was then read using a Cytation 5 Cell Imaging Multi-Mode Reader (BioTek). (FIG. 6)
# CT26 cells = experiment: CT26 cell viability; type: cell-based
# MV4;11 cells = experiment: Cell line drug sensitivity (CellTiter-Glo); type: cell-based; conditions: Homo sapiens, MV4-11, 48 h
# NB4 cells = experiment: Cell line drug sensitivity (CellTiter-Glo); type: cell-based; conditions: Homo sapiens, NB-4, 48 h
# SET-2 cells = experiment: Cell line drug sensitivity (CellTiter-Glo); type: cell-based
# Experimental: as §1, §2
# Jurkat cells = experiment: Cell line drug sensitivity (CellTiter-Glo); type: cell-based; conditions: 48 h
# Experimental: as §1, §2
# RDES-1 cells = experiment: Cell line drug sensitivity (CellTiter-Glo); type: cell-based; conditions: 48 h
# Experimental: as §1, §2
# ONS-76 cells = experiment: Cell line drug sensitivity (CellTiter-Glo); type: cell-based
# Experimental: as §1, §2
# OCI-AML3 cells = experiment: Cell line drug sensitivity (CellTiter-Glo); type: cell-based
# Experimental: as §1, §2
# KG-1 cells = experiment: Cell line drug sensitivity (CellTiter-Glo); type: cell-based
# Experimental: as §1, §2
# U937 cells = experiment: Cell line drug sensitivity (CellTiter-Glo); type: cell-based
# Experimental: as §1, §2
# K562 cells = experiment: Cell line drug sensitivity (CellTiter-Glo); type: cell-based
# Experimental: as §1, §2
# HT-1080 cells = experiment: Cell line drug sensitivity (CellTiter-Glo); type: cell-based
# Experimental: as §1, §2
# MOLM-13 cells = experiment: Cell line drug sensitivity (CellTiter-Glo); type: cell-based
# Experimental: as §1, §2
# Kasumi-1 cells = experiment: Cell line drug sensitivity (CellTiter-Glo); type: cell-based
# Experimental: as §1, §2
# MCF7 cells = experiment: Cell line drug sensitivity (CellTiter-Glo); type: cell-based
# Experimental: as §1, §2
# NOMO-1 cells = experiment: Cell line drug sensitivity (CellTiter-Glo); type: cell-based
# Experimental: as §1, §2
# SKM-1 cells = experiment: Cell line drug sensitivity (CellTiter-Glo); type: cell-based
# Experimental: as §1, §2
# DAOY cells = experiment: Cell line drug sensitivity (CellTiter-Glo); type: cell-based; conditions: 48 h
# Experimental: as §1, §2
# TC-71 cells = experiment: Cell line drug sensitivity (CellTiter-Glo); type: cell-based
# Experimental: as §1, §2
# HEL cells = experiment: Cell line drug sensitivity (CellTiter-Glo); type: cell-based
# Experimental: as §1, §2
# IMR-5 cells = experiment: Cell line drug sensitivity (CellTiter-Glo); type: cell-based
# Experimental: as §1, §2
# THP-1 cells = experiment: Cell line drug sensitivity (CellTiter-Glo); type: cell-based
# Experimental: as §1, §2
# HL-60 cells = experiment: Cell line drug sensitivity (CellTiter-Glo); type: cell-based
# Experimental: as §1, §2
# RS4;11 cells = experiment: Cell line drug sensitivity (CellTiter-Glo); type: cell-based
# [1] = MTD (survival) of ARI-4268; type: in vivo; conditions: without PGE2 inhibitor, compared with Val-boroPro
# PGE2 = experiment: Peritoneal PGE2 levels after dosing; type: in vivo; conditions: even at substantially higher doses than Val-boroPro
# MB49 tumor = experiment: MB49 efficacy studies; type: in vivo, C57BL/6 mice
# [2] = in comparison to Val-boroPro
# G-CSF = experiment: Serum cytokine induction in mice (G-CSF screen); type: in vivo, BALB/c mice
# Description: No. MKC00B) • IL-18 (R&D Systems, Cat. […] Systems, Cat. No. […])
# rhabdomyosarcoma = conditions: established rhabdomyosarcoma, preclinical; cited from earlier work
smiles,measurement,setting,value
CC1([C@H](N)C(=O)N2CCC[C@H]2B(O)O)CCCCC1 (relative stereo) [ARI-4175CH],IC50 values over the sensitive AML cell lines,AML cell lines,low (single digit) nanomolar
same,EC50,"CT26 cells; Mus musculus, CT26",> 1000 µM
same,IC50,MV4;11 cells,0.003 µM
same,IC50,NB4 cells,0.003 µM
same,IC50,"SET-2 cells; Homo sapiens, SET-2, 48 h",0.001 µM
same,IC50,Jurkat cells; Homo sapiens,> 60 µM
same,IC50,RDES-1 cells,> 60 µM
same,IC50,"ONS-76 cells; Homo sapiens, ONS-76, 48 h",> 60 µM
same,IC50,"OCI-AML3 cells; Homo sapiens, OCI-AML-3, 48 h",0.003 µM
same,IC50,"KG-1 cells; Homo sapiens, KG-1, 48 h",0.049 µM
same,IC50,"U937 cells; Homo sapiens, U-937, 48 h",> 60 µM
same,IC50,"K562 cells; Homo sapiens, K562, 48 h",> 60 µM
same,IC50,"HT-1080 cells; Homo sapiens, HT-1080, 48 h",> 60 µM
same,IC50,"MOLM-13 cells; Homo sapiens, MOLM-13, 48 h",0.006 µM
same,IC50,"Kasumi-1 cells; Homo sapiens, Kasumi 1, 48 h",> 60 µM
same,IC50,"MCF7 cells; Homo sapiens, MCF7, 48 h",> 60 µM
same,IC50,"NOMO-1 cells; Homo sapiens, NOMO-1, 48 h",0.004 µM
same,IC50,"SKM-1 cells; Homo sapiens, SKM-1, 48 h",0.001 µM
same,IC50,"DAOY cells; Homo sapiens, Daoy",> 60 µM
same,IC50,"TC-71 cells; TC-71, 48 h",> 60 µM
same,IC50,"HEL cells; Homo sapiens, 48 h",> 60 µM
same,IC50,"IMR-5 cells; Homo sapiens, IMR-5, 48 h",> 60 µM
same,IC50,"THP-1 cells; Homo sapiens, THP-1, 48 h",0.006 µM
same,IC50,"HL-60 cells; Homo sapiens, HL-60, 48 h",0.003 µM
same,IC50,"RS4;11 cells; Homo sapiens, RS4-11, 48 h",0.013 µM
CC(C)(F)[C@H](N)C(=O)N1CCC[C@H]1B(O)O (relative stereo) [ARI-4268],MTD (survival),[1],dramatically increased MTD (survival) without the need for a PGE2 inhibitor
same,Peritoneal PGE2 levels,PGE2,does not induce peritoneal PGE2 levels to the same extent as Val-boroPro
same,Antitumor activity,"MB49 tumor; MB49 model, truncated dosing schedules",displays antitumor activity in the MB49 mouse tumor model at doses indicating improved therapeutic index
same,Oral activity,[2],good oral activity—on par with highly orally active Val-boroPro
"N[C@H](C(=O)N1CCC[C@H]1B(O)O)C12CC3CC(CC(C3)C1)C2 (relative stereo) [ARI-5544, Gly(1-adamantyl)-boroPro]",IC50 values over the sensitive AML cell lines,AML cell lines,low (single digit) nanomolar
same,EC50,"CT26 cells; Mus musculus, CT26",> 100 µM
same,IC50,MV4;11 cells,0.002 µM
same,IC50,NB4 cells,0.003 µM
same,IC50,"SET-2 cells; Homo sapiens, SET-2, 48 h",0.0002 µM
same,IC50,Jurkat cells; Homo sapiens,> 60 µM
same,IC50,RDES-1 cells,> 60 µM
same,IC50,"ONS-76 cells; Homo sapiens, ONS-76, 48 h",> 60 µM
same,IC50,"OCI-AML3 cells; Homo sapiens, OCI-AML-3, 48 h",0.002 µM
same,IC50,"KG-1 cells; Homo sapiens, KG-1, 48 h",0.005 µM
same,IC50,"U937 cells; Homo sapiens, U-937, 48 h",> 60 µM
same,IC50,"K562 cells; Homo sapiens, K562, 48 h",> 60 µM
same,IC50,"HT-1080 cells; Homo sapiens, HT-1080, 48 h",> 60 µM
same,IC50,"MOLM-13 cells; Homo sapiens, MOLM-13, 48 h",0.005 µM
same,IC50,"Kasumi-1 cells; Homo sapiens, Kasumi 1, 48 h",> 60 µM
same,IC50,"MCF7 cells; Homo sapiens, MCF7, 48 h",> 60 µM
same,IC50,"NOMO-1 cells; Homo sapiens, NOMO-1, 48 h",0.005 µM
same,IC50,"SKM-1 cells; Homo sapiens, SKM-1, 48 h",0.0004 µM
same,IC50,"DAOY cells; Homo sapiens, Daoy",> 60 µM
same,IC50,"TC-71 cells; TC-71, 48 h",> 60 µM
same,IC50,"HEL cells; Homo sapiens, 48 h",> 60 µM
same,IC50,"IMR-5 cells; Homo sapiens, IMR-5, 48 h",> 60 µM
same,IC50,"THP-1 cells; Homo sapiens, THP-1, 48 h",0.005 µM
same,IC50,"HL-60 cells; Homo sapiens, HL-60, 48 h",0.003 µM
C[C@H](N)C(=S)N1CCC[C@H]1B(O)O [ARI-2243],EC50,CT26 cells,> 1000 µM
same,Average [G-CSF] at 6 hrs,G-CSF; 20 μg/animal PO,330 pg/mL
same,Average [G-CSF] at 6 hrs,G-CSF; 50 μg/animal IP,2100 pg/mL
same,Average [G-CSF] at 6 hrs,G-CSF; 100 μg/animal IP,2400 pg/mL
same,Average [G-CSF] at 6 hrs,G-CSF; 300 μg/animal IP,4400 pg/mL
"CC(C)(C)[C@H](N)C(=O)N1CCC[C@H]1B(O)O [ARI-4175, t-butylglycine-boroProline]",EC50,CT26 cells,> 1000 µM
same,Anti-tumor activity,rhabdomyosarcoma,significant immune-dependent anti-tumor activity
same,Average [G-CSF] at 6 hrs,G-CSF; 20 μg/animal PO,19000 pg/mL
same,Average [G-CSF] at 6 hrs,G-CSF; 20 μg/animal SC,65000 pg/mL
same,IC50,"SET-2 cells; SET-2, AML/MPN, 48 h, read-out: IC50",0.002 µM
same,IC50,"Jurkat cells; T-ALL, read-out: IC50",> 60 µM
same,IC50,"RDES-1 cells; RDES-1, Ewing's sarcoma, read-out: IC50",> 60 µM
same,IC50,"ONS-76 cells; ONS-76, Medulloblastoma, 48 h, read-out: IC50",> 60 µM
same,IC50,"OCI-AML3 cells; OCI-AML3, AML M4, 48 h, read-out: IC50",0.019 µM
same,IC50,"KG-1 cells; KG-1, AML M0, 48 h, read-out: IC50",0.035 µM
same,IC50,"U937 cells; U937, AML/histiocytic lymphoma M5, 48 h, read-out: IC50",> 60 µM
same,IC50,"K562 cells; K562, CML/Erythroleukemia, 48 h, read-out: IC50",> 60 µM
same,IC50,"HT-1080 cells; HT-1080, Fibrosarcoma, 48 h, read-out: IC50",> 60 µM
same,IC50,"MOLM-13 cells; MOLM-13, AML M5, 48 h, read-out: IC50",0.028 µM
same,IC50,"Kasumi-1 cells; Kasumi-1, AML M2, 48 h, read-out: IC50",> 60 µM
same,IC50,"MCF7 cells; MCF7, Breast, 48 h, read-out: IC50",> 60 µM
same,IC50,"NOMO-1 cells; NOMO-1, AML M5, 48 h, read-out: IC50",0.03 µM
same,IC50,"SKM-1 cells; SKM-1, AML M5, 48 h, read-out: IC50",0.007 µM
same,IC50,"DAOY cells; DAOY, Medulloblastoma, read-out: IC50",> 60 µM
same,IC50,"TC-71 cells; TC-71, Ewing's sarcoma, 48 h, read-out: IC50",> 60 µM
same,IC50,"HEL cells; AML/Erythroleukemis M6, 48 h, read-out: IC50",> 60 µM
same,IC50,"IMR-5 cells; IMR-5, Neuroblastoma, 48 h, read-out: IC50",> 60 µM
same,IC50,"THP-1 cells; THP-1, AML M5, 48 h, read-out: IC50",0.023 µM
same,IC50,"HL-60 cells; HL-60, AML M2, 48 h, read-out: IC50",0.016 µM
same,IC50,"RS4;11 cells; RS4;11, AML/B-ALL, 48 h, read-out: IC50",0.096 µM
NC(N)=NCCC[C@H](N)C(=O)N1CCC[C@H]1B(O)O [Arg-boroPro],EC50,CT26 cells,> 1000 µM
CC(C)C[C@H](NC(=O)[C@H](Cc1ccccc1)NC(=O)c1cnccn1)B(O)O [Bortezomib],EC50,"CT26 cells; Mus musculus, CT26",0.036 µM
N[C@@H](CCC(=O)O)C(=O)N1CCC[C@H]1B(O)O [Glu-boroPro],EC50,CT26 cells,> 1000 µM
same,Average [G-CSF] at 6 hrs,G-CSF; 20 μg/animal PO,340 pg/mL
same,Average [G-CSF] at 6 hrs,G-CSF; 200 μg/animal PO,160 pg/mL
same,Average [G-CSF] at 6 hrs,G-CSF; 200 μg/animal SC,210 pg/mL
same,Average [G-CSF] at 6 hrs,G-CSF; 2000 μg/animal PO,2300 pg/mL
same,Average [G-CSF] at 6 hrs,G-CSF; 2000 μg/animal SC,16000 pg/mL
"N[C@@H](CC(=O)N1CCn2c(nnc2C(F)(F)F)C1)Cc1cc(F)c(F)cc1F [Sitagiptin, Sitagliptin]",Average [G-CSF] at 6 hrs,G-CSF; 200 μg/animal SC,100 pg/mL
same,Average [G-CSF] at 6 hrs,G-CSF; 1000 μg/animal PO,340 pg/mL
same,Average [G-CSF] at 6 hrs,G-CSF; 2000 μg/animal SC,950 pg/mL
Cc1ccc(-c2cc(C(F)(F)F)nn2-c2ccc(S(N)(=O)=O)cc2)cc1 [celecoxib],Tumor growth rate,"MB49 tumor; celecoxib alone, various concentrations",no observed differences in tumor growth rates compared to control

# — patent US11583516B2, “Dash inhibitors, and uses related thereto” (Trustees of Tufts College, priority 2016, dated 2023)
